# Assay results from patent US20060182775A1, “Insect repellent” (priority 2005, published 2006).
# Assays:
# [1] = cited from earlier work
# [2] = human, in vivo
Compound,absorption through the skin ([1]; in vivo),effect on the nervous system ([1]; in vivo),seizures and death ([1]; some individuals),burning and/or irritation of skin [2]
"CCN(CC)C(=O)c1cccc(C)c1 [DEET, n,n-diethyl-m-toluamide]",readily absorbed through the skin and enters into the blood stream,adversely affect the nervous system,caused seizures and even death in some individuals,
citronella oil,,,,caused burning and/or irritation
